Assay results from ChEMBL document CHEMBL5724914, “Linking interpersonal differences in gut microbiota composition and drug biotransformation activity” (2024).

Tests used:
[1] = (§1) The drug is tested on Z-007 corresponding to rat gut metagenome with ENA study accession number: PRJEB37062 and ENA sample accession number: ERS12561807 for biotransformation under anaerobic condition. The drug concentrations were measured over 9 timepoints collected between 0 and 24 hours of incubation by liquid-chromatography-coupled mass spectrometry (LC–MS); conditions: 2 µM
[2] = as §1, with “on Z-017” for “on Z-007”, “to mouse” for “to rat”, “number: ERS12561816” for “number: ERS12561807”; conditions: 2 µM
[3] = as §1, with “on WLS-350” for “on Z-007”, “to human” for “to rat”, “number: ERS12561789” for “number: ERS12561807”; conditions: 2 µM
[4] = human gut metagenome, 24 h, 2 µM
[5] = as §1, with “on WLS-052” for “on Z-007”, “to human” for “to rat”, “number: ERS12561747” for “number: ERS12561807”; conditions: 2 µM
[6] = as §1, with “on Z-002” for “on Z-007”, “to rabbit” for “to rat”, “number: ERS12561802” for “number: ERS12561807”; conditions: 2 µM
[7] = as §1, with “on Z-001” for “on Z-007”, “to mouse” for “to rat”, “number: ERS12561801” for “number: ERS12561807”; conditions: 2 µM
[8] = as §1, with “Z-021” for “Z-007”, “to” for “to rat gut”, “ERS12561820” for “ERS12561807”; conditions: 2 µM
[9] = as §1, with “Z-012” for “Z-007”, “to” for “to rat gut”, “ERS12561812” for “ERS12561807”; conditions: 2 µM
[10] = human gut metagenome, 24 h, 2 µM; remark: listed apart in the source
[11] = as §1, with “on WLS-170” for “on Z-007”, “to human” for “to rat”, “number: ERS12561762” for “number: ERS12561807”; conditions: 2 µM
[12] = as §1, with “on WLS-027” for “on Z-007”, “to human” for “to rat”, “number: ERS12561744” for “number: ERS12561807”; conditions: 2 µM
[13] = human gut metagenome, 24 h, 2 µM; remark: listed apart in the source
[14] = human gut metagenome, 24 h, 2 µM; remark: listed apart in the source
[15] = human gut metagenome, 24 h, 2 µM; remark: listed apart in the source
[16] = human gut metagenome, 24 h, 2 µM; remark: listed apart in the source
[17] = human gut metagenome, 24 h, 2 µM; remark: listed apart in the source
[18] = human gut metagenome, 24 h, 2 µM; remark: listed apart in the source
[19] = human gut metagenome, 24 h, 2 µM; remark: listed apart in the source
[20] = human gut metagenome, 24 h, 2 µM; remark: listed apart in the source
Note: call rule not given here.

Row | Bacterial Biotransformation [1] | Bacterial Biotransformation [2] | Bacterial Biotransformation [3] | Bacterial Biotransformation [4] | Bacterial Biotransformation [5] | Bacterial Biotransformation [6] | Bacterial Biotransformation [7] | Bacterial Biotransformation [8] | Bacterial Biotransformation [9] | Bacterial Biotransformation [10] | Bacterial Biotransformation [11] | Bacterial Biotransformation [12] | Bacterial Biotransformation [13] | Bacterial Biotransformation [14] | Bacterial Biotransformation [15] | Bacterial Biotransformation [16] | Bacterial Biotransformation [17] | Bacterial Biotransformation [18] | Bacterial Biotransformation [19] | Bacterial Biotransformation [20] | SMILES
1 | Compound NOT metabolized | Compound metabolized | Compound metabolized | Compound metabolized | Compound metabolized | Compound metabolized | Compound metabolized | Compound metabolized | Compound metabolized | Compound metabolized | Compound metabolized | Compound metabolized | Compound metabolized | Compound metabolized | Compound metabolized | Compound metabolized | Compound metabolized | Compound NOT metabolized | Compound metabolized | Compound metabolized | CCCCCOC(=O)Nc1nc(=O)n([C@@H]2O[C@H](C)[C@@H](O)[C@H]2O)cc1F [CAPECITABINE]
2 | Compound NOT metabolized | Compound NOT metabolized | Compound NOT metabolized | Compound NOT metabolized | Compound metabolized | Compound NOT metabolized | Compound NOT metabolized | Compound NOT metabolized | Compound NOT metabolized | Compound metabolized | Compound NOT metabolized | Compound metabolized | Compound NOT metabolized | Compound metabolized | Compound metabolized | Compound NOT metabolized | Compound NOT metabolized | Compound NOT metabolized | Compound metabolized | Compound NOT metabolized | Cc1ccc(-c2cc(C(F)(F)F)nn2-c2ccc(S(N)(=O)=O)cc2)cc1 [CELECOXIB]
3 | Compound NOT metabolized | Compound NOT metabolized | Compound metabolized | Compound metabolized | Compound metabolized | Compound metabolized | Compound metabolized | Compound metabolized | Compound NOT metabolized | Compound metabolized | Compound metabolized | Compound metabolized | Compound metabolized | Compound NOT metabolized | Compound metabolized | Compound metabolized | Compound metabolized | Compound NOT metabolized | Compound NOT metabolized | Compound metabolized | Clc1ccc(Cn2c(CN3CCCC3)nc3ccccc32)cc1 [CLEMIZOLE]
4 | Compound metabolized | Compound metabolized | Compound metabolized | Compound metabolized | Compound metabolized | Compound metabolized | Compound metabolized | Compound metabolized | Compound metabolized | Compound metabolized | Compound metabolized | Compound metabolized | Compound metabolized | Compound metabolized | Compound metabolized | Compound metabolized | Compound metabolized | Compound NOT metabolized | Compound metabolized | Compound metabolized | CC(=O)OCC(=O)[C@@]12N=C(C)O[C@@H]1C[C@H]1[C@@H]3CCC4=CC(=O)C=C[C@]4(C)[C@H]3[C@@H](O)C[C@@]12C [DEFLAZACORT]

The next lines start with the molecule.

Row | SMILES | Bacterial Biotransformation [1] | Bacterial Biotransformation [2] | Bacterial Biotransformation [3] | Bacterial Biotransformation [4] | Bacterial Biotransformation [5] | Bacterial Biotransformation [6] | Bacterial Biotransformation [7] | Bacterial Biotransformation [8] | Bacterial Biotransformation [9] | Bacterial Biotransformation [10] | Bacterial Biotransformation [11] | Bacterial Biotransformation [12] | Bacterial Biotransformation [13] | Bacterial Biotransformation [14] | Bacterial Biotransformation [15] | Bacterial Biotransformation [16] | Bacterial Biotransformation [17] | Bacterial Biotransformation [18] | Bacterial Biotransformation [19] | Bacterial Biotransformation [20]
5 | CC(C)NCC(O)COc1ccc(COCCOC(C)C)cc1.CC(C)NCC(O)COc1ccc(COCCOC(C)C)cc1.O=C(O)/C=C/C(=O)O (stereo not given) [BISOPROLOL FUMARATE] | Compound NOT metabolized | Compound NOT metabolized | Compound NOT metabolized | Compound metabolized | Compound NOT metabolized | Compound metabolized | Compound metabolized | Compound metabolized | Compound NOT metabolized | Compound metabolized | Compound metabolized | Compound NOT metabolized | Compound NOT metabolized | Compound NOT metabolized | Compound metabolized | Compound NOT metabolized | Compound metabolized | Compound NOT metabolized | Compound NOT metabolized | Compound NOT metabolized
6 | CN1C(=O)CCS(=O)(=O)C1c1ccc(Cl)cc1 (stereo not given) [CHLORMEZANONE] | Compound NOT metabolized | Compound NOT metabolized | Compound NOT metabolized | Compound NOT metabolized | Compound NOT metabolized | Compound NOT metabolized | Compound NOT metabolized | Compound NOT metabolized | Compound NOT metabolized | Compound metabolized | Compound metabolized | Compound NOT metabolized | Compound NOT metabolized | Compound NOT metabolized | Compound metabolized | Compound metabolized | Compound NOT metabolized | Compound NOT metabolized | Compound NOT metabolized | Compound NOT metabolized
7 | CN1CCN(C2=Nc3cc(Cl)ccc3Nc3ccccc32)CC1 [CLOZAPINE] | Compound NOT metabolized | Compound NOT metabolized | Compound metabolized | Compound NOT metabolized | Compound NOT metabolized | Compound metabolized | Compound NOT metabolized | Compound NOT metabolized | Compound NOT metabolized | Compound metabolized | Compound metabolized | Compound metabolized | Compound NOT metabolized | Compound metabolized | Compound NOT metabolized | Compound metabolized | Compound metabolized | Compound NOT metabolized | Compound metabolized | Compound NOT metabolized
8 | COc1cc2c(c(OC)c1OC)-c1ccc(OC)c(=O)cc1[C@@H](NC(C)=O)CC2 [COLCHICINE] | Compound NOT metabolized | Compound NOT metabolized | Compound NOT metabolized | Compound NOT metabolized | Compound NOT metabolized | Compound metabolized | Compound NOT metabolized | Compound NOT metabolized | Compound NOT metabolized | Compound metabolized | Compound metabolized | Compound NOT metabolized | Compound metabolized | Compound metabolized | Compound metabolized | Compound NOT metabolized | Compound metabolized | Compound NOT metabolized | Compound metabolized | Compound metabolized
